# Experiments:
# [1] = molecular target: T1, His-tagged Keap1-kelch domain polypeptide (Homo sapiens, UniProt Q14145); test: Antibody-based binding assay, displacement of 3H-labeled Nrf2 Peptide 2; details: Keap1-kelch domain polypeptide immobilized via anti-His tag antibody; about 1 nm to about 100 μM; FIG. 2
# T1 construct: the Keap1-kelch domain polypeptide comprises amino acid residues 322 to 609 of the human Keap1 protein; made in house; host or cells: E. coli Rosetta2 BL21 pLysS, plasmid pET15b-Keap1-kelch domain
# Excerpt: This example provides a protocol for an antibody-based binding assay for identifying activators of the Nrf2-Keap1 system. Because Keap1 protein's or Keap1-kelch domain polypeptide's binding to the assay plate surface is not dependent on divalent metal cations such as nickel, the antibody-based assay is also useful for determining whether the competitive effect observed in an ion-based assay was a result of the analyte competing with binding of the labeled Peptide 2 with the Keap1-kelch domain or with the binding of the Keap1 protein or Keap1-kelch domain polypeptide with divalent cations on the plate. In general, the assay is performed as follows.
# One μg/mL of mouse-derived anti-His tag antibody (Catalog No. 35370, Quiagen, Valencia, Calif.) is added to anti-mouse IgG-coated white plates (Catalog No. 15234, Pierce Biotechnology, Inc.) and incubated at room temperature for two hours. The plate is then washed with four chamber volumes of PBS to remove any excess antibody.
# Controls include […] unlabeled Nrf2 Peptide 2 and 0.5% DMSO.
# During the last 15 minutes of the 4° C. incubation, one L of cold PBS-T is added to the Liquid 1 wash bottle of the EMBLA 96/384 plate washer (Molecular Devices Corporation, Sunnyvale, Calif.). The instrument is primed using program ‘A1’ a minimum of three times. […]
# [2] = test system: His tagged Green Fluorescent Protein (GFP); details: relative to DMSO; FIG. 3
# Protocol: In this assay, His tagged Green Fluorescent Protein (GFP) retention on a divalent metal cation surface is monitored in the presence of analytes.
# Stock solutions containing analytes at various concentrations or 500 nL DMSO and controls are transferred into the wells of a CHOICECOAT metal chelate white 384 well plates (Catalog No. NC15140, Pierce Biotechnology, Inc.). The volume is 500 nL per well. Controls include 100 μM unlabeled Peptide 2 and 0.5% DMSO.
# An assay solution containing one μg His tagged GFP protein in PBS (per well) is prepared and 50 μL of this assay solution is dispensed into each well of the 384 well plates. The plates are covered and incubated at room temperature for two hours. Following the room temperature incubation, the plates are cooled by incubating in a 4° C. refrigerator for one hour. The plates are then washed by aspirating the well, adding 80 uL of PBS-T, aspirating the well, adding 80 uL of PBS-T, and aspirating the well.
# [3] = molecular target: T2, recombinant human His-tagged Keap1-kelch domain polypeptide (human, UniProt Q14145 322-609); test: method not stated; binding affinity for the kelch domain
# T2 construct: domain: kelch domain; Expressed in E. coli from pET15b between NdeI and BamHI; also called recombinant Keap1-kelch domain; kelch domain of the Keap1 protein; not shown: N-terminal six-histidine tag from vector pET15b
# T2 sequence (Q14145 322-609): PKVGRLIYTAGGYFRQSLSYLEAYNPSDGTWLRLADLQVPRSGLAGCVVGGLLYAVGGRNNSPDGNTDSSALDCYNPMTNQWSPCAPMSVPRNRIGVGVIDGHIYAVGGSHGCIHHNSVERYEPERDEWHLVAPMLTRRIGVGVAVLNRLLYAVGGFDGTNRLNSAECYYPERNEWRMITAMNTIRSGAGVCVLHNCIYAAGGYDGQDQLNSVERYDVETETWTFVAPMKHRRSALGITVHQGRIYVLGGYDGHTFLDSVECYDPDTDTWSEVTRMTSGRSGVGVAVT
# T1 sequence (Q14145 322-609): as above
binding affinity [3],Molecule,competition with labeled Peptide 2 for binding to the kelch domain (result in words) [1],percent inhibition of binding of the GFP to the nickel on the surface of the plate [2]
,"CC[C@H](C)[C@H](NC(=O)[C@@H]1CCCN1C(=O)[C@H](CC(C)C)NC(=O)[C@H](Cc1ccccc1)NC(=O)[C@H](CCC(=O)O)NC(=O)CNC(=O)[C@@H](NC(=O)[C@H](CCC(=O)O)NC(=O)[C@H](CCC(=O)O)NC(=O)[C@H](CC(=O)O)NC(=O)[C@H](CC(C)C)NC(=O)[C@H](CCC(N)=O)NC(=O)[C@@H](N)CC(C)C)[C@@H](C)O)C(=O)N[C@@H](CCC(N)=O)C(=O)O [Peptide 2, NH2-LQLDEETGEFLPIQ-OH]",result from this assay expected for an analyte that competes,0%
~397 nM,LLVDGETGESFPAQ [Nrf1 peptide LLVDGETGESFPAQ],,
~626 nM,RKRNVESGEEELAS [Pgam5 peptide RKRNVESGEEELAS],,
